Converted amounts (≈) assume the structure as drawn. The source made the active and inactive calls. The rule behind the calls is not given here.
Assays:
[1] = molecular target: T1, Acetyl-CoA carboxylase 1 (Homo sapiens, UniProt Q13085); experiment: Inhibition of recombinant human ACC1 expressed in Sf9 cells using acetyl Co-A as substrate preincubated for 60 mins followed by substrate addition and measured after 30 mins by RapidFire-Mass spectrometry
[2] = AUC (0 to 8 hrs) in ICR mouse at 0.1 mg/kg, iv or 1 mg/kg, po administered as cassette dose by LC-MS/MS analysis; format: ADME, organism-based; settings: in vivo
[3] = Solubility of the compound in pH 6.8 aqueous buffer by HPLC analysis; format: physicochemical
[4] = molecular target: T1, Acetyl-CoA carboxylase 1; experiment: Inhibition of ACC1 in human HCT116 cells assessed as reduction in [14C]acetate uptake preincubated for 60 mins followed by [14C]acetate addition and measured after 2 hrs by top count scintillation counting method; format: cell-based
[5] = molecular target: T2, Acetyl-CoA carboxylase 2 (Homo sapiens, UniProt O00763); experiment: Inhibition of recombinant human ACC2 expressed in Sf9 cells using acetyl Co-A as substrate preincubated for 60 mins followed by substrate addition and measured after 30 mins by RapidFire-Mass spectrometry
Target sequence in this assay (O00763 whole entry): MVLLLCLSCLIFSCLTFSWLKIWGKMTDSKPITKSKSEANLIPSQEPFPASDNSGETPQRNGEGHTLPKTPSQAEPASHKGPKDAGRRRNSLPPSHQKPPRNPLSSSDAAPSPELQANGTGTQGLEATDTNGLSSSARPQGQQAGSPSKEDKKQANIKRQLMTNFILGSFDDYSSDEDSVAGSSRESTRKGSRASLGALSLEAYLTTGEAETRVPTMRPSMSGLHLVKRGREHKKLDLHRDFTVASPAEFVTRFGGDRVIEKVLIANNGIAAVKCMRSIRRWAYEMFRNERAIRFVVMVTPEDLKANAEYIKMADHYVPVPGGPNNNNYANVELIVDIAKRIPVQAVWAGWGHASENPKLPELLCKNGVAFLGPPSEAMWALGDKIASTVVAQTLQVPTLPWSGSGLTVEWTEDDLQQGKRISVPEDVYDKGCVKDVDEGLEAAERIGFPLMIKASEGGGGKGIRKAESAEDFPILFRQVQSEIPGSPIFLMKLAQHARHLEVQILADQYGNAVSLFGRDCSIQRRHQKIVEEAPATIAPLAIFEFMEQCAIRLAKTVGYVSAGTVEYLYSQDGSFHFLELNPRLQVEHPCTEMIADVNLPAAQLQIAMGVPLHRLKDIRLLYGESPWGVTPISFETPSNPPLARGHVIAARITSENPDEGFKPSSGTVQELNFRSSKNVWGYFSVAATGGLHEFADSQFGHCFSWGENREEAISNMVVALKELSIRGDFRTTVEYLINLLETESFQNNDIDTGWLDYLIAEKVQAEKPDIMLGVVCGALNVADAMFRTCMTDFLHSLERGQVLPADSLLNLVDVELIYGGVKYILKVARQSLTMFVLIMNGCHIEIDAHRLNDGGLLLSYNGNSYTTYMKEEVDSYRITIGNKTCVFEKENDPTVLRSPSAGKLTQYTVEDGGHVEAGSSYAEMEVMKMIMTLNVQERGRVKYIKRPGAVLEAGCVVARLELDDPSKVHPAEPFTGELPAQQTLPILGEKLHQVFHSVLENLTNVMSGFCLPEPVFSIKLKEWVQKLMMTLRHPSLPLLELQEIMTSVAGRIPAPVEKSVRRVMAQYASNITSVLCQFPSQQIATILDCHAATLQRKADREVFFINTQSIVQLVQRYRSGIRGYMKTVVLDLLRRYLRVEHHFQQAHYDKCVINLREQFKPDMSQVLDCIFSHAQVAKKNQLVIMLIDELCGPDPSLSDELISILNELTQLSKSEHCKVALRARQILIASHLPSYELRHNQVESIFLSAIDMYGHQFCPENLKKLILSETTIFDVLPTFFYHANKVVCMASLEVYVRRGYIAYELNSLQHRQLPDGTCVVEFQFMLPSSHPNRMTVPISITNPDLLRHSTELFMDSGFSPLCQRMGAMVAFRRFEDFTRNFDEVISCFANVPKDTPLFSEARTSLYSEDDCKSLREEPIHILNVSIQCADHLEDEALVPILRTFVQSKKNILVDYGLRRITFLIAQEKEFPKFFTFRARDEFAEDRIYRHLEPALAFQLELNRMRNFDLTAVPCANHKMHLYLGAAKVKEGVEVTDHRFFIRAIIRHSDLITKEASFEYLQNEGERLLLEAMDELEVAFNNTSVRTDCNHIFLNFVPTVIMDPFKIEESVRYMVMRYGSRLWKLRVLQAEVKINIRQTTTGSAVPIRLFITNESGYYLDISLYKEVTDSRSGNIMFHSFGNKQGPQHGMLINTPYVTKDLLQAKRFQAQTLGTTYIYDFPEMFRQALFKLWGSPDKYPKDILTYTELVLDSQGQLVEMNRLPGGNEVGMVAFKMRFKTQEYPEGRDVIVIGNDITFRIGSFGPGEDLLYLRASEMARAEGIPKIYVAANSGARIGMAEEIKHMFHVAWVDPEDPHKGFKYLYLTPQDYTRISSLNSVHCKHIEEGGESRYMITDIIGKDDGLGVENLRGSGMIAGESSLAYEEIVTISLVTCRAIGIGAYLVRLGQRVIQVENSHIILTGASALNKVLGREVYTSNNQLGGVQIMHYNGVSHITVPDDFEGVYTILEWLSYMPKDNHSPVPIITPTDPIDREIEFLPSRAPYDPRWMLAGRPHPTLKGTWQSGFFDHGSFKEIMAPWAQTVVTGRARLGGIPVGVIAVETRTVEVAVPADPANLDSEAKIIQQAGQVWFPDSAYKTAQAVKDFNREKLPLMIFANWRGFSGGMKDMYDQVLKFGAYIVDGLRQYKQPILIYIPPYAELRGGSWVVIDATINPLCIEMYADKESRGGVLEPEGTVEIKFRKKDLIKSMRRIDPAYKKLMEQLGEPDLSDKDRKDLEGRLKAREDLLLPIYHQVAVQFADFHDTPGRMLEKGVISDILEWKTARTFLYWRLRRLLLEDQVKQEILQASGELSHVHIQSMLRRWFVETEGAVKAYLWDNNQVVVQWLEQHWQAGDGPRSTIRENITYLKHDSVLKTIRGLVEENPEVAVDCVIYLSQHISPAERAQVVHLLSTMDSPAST

[6] = molecular target: T2, Acetyl-CoA carboxylase 2; experiment: Inhibition of recombinant human ACC2 expressed in Sf9 cells at 10 uM using acetyl Co-A as substrate preincubated for 60 mins followed by substrate addition and measured after 30 mins by RapidFire-Mass spectrometry relative to control
Target sequence in this assay (O00763 whole entry, looked up): as the sequence (O00763 whole entry) above

[7] = Oral bioavailability in ICR mouse at 1 mg/kg administered as cassette dose by LC-MS/MS analysis; format: ADME, organism-based; settings: in vivo
[8] = species: Homo sapiens; experiment: Selectivity ratio of IC50 for recombinant human ACC2 expressed in Sf9 cells to IC50 for recombinant human ACC1 expressed in Sf9 cells
[9] = molecular target: T1, Acetyl-CoA carboxylase 1; experiment: Inhibition of recombinant human ACC1 expressed in Sf9 cells at 10 uM using acetyl Co-A as substrate preincubated for 60 mins followed by substrate addition and measured after 30 mins by RapidFire-Mass spectrometry relative to control
[10] = tested on: Mus musculus; experiment: In vivo inhibition of ACC1 in BALB/cA Jc1-nu/nu mouse xenografted with human HCT116 cells assessed as suppression of malonyl-CoA synthesis at 100 mg/kg, po administered as single dose measured after 16 hrs by RPLC-MS/MS analysis; format: functional, organism-based

Row | SMILES | IC50 [1] | AUC(0-t) [2] | solubility [3] | IC50 [4] | IC50 [5] | inhibition [6] | bioavailability [7] | Ratio IC50 [8] | inhibition [9] | inhibition [10]
1 | Cn1cc(C(=O)Nc2ccc3[nH]ncc3c2)c2ncc(-c3ccccc3)cc21 | 820 nM | 189 ng·h/mL | 60 µg/mL (≈ 163 µM) | 430 nM | 4000 nM | 83% | 39.3% | 5 | 99% | –
2 | CCn1cc(C(=O)Nc2ccc3[nH]ncc3c2)c2ncc(-c3ccccc3)cc21 | 1000 nM | 653 ng·h/mL | < 60 µg/mL | 130 nM | 3700 nM | – | 57.7% | – | – | –
3 | CN(C(=O)c1cn(C)c2cc(-c3ccccc3)cnc12)c1ccc2[nH]ncc2c1 | – | – | – | – | – | 6% | – | – | 7% | –
4 | Cn1cc(C(=O)Nc2ccc3[nH]ccc3c2)c2ncc(-c3ccccc3)cc21 | – | – | – | – | – | – | – | – | 69% | –
5 | O=C(Nc1ccc2[nH]ncc2c1)c1c[nH]c2cc(-c3ccccc3)cnc12 | – | – | – | – | – | 4% | – | – | 45% | –
6 | CC(C)n1cc(C(=O)Nc2ccc3[nH]ncc3c2)c2ncc(-c3ccccc3)cc21 | 1600 nM | 1700 ng·h/mL | 3200 µg/mL (≈ 8090 µM) | > 1000 nM | 6400 nM | – | 59.8% | – | – | –
7 | Cn1cc(C(=O)Nc2ccc3c(cnn3C)c2)c2ncc(-c3ccccc3)cc21 | – | – | – | – | – | – | – | – | 26% | –
8 | CC(C)n1cc(C(=O)Nc2ccc3[nH]ncc3c2)c2ncc(-c3ccc(N)cc3)cc21 | 210 nM | – | – | 490 nM | 2200 nM | – | – | – | – | –
9 | O=C(Nc1ccc2[nH]ncc2c1)c1c[nH]c2cc(-c3ccccc3)ccc12 | – | – | – | – | – | -8% | – | – | -7% | –
10 | CC(C)n1cc(C(=O)Nc2cc3cn[nH]c3cc2F)c2ncc(-c3ccc(N)cc3)cc21 | 170 nM | 647 ng·h/mL | – | 150 nM | 2000 nM | – | 63.2% | – | – | Active
11 | Cn1cc(C(=O)Nc2ccc3[nH]cnc3c2)c2ncc(-c3ccccc3)cc21 | – | – | – | – | – | 31% | – | – | 51% | –

— ChEMBL document CHEMBL4340524, “Design and synthesis of a novel 1H-pyrrolo[3,2-b]pyridine-3-carboxamide derivative as an orally available ACC1 inhibitor” (Bioorg Med Chem, 2019)
